Tests used:
[1] = test system: endotoxin from E. coli 055:B5; test: Limulus amoebocyte lysate assay (E-TOXATE), endotoxin neutralization; type: biochemical
How it was run: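 Peptide preincubated with LPS 5 min at room temperature in 1:2 pyrogen-free saline (pH 6.4), then amoebocyte lysate added (E-TOXATE kit). Neutralization of endotoxin activity scored by Limulus lysate reaction; BG38L served as positive control.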

HUVEC = test: Leukocyte/EC adhesion assay; type: cell-based, human; conditions: bFGF 10 ng/ml + PF4 100 μg/ml
Method: Functional impact for the observed phenomena was provided by leukocyte/EC adhesion assays as described earlier (Griffioen et al. Cancer Res. 56:1111–1117, 1996). […] TNF mediated upregulation of adhesion to bFGF preincubated HUVEC in the presence of PF4 was similar to the adhesion to TNF treated control cells. PHA-activated peripheral blood T lymphocyte were adhered for 1 hour at 37° C. to TNF-α (4 ng/ml), bFGF (10 ng/ml)+PF4 (100 μg/ml) treated, or control (HUVEC). Non-adhering cells were removed and adhered cells were enumerated by an inverted microscope. Values of one representative experiment out of three are expressed as numbers of adhered cells per high power field. Statistical significance is determined by the Student's t-test.

platelet factor 4 [PF4]
endotoxin neutralizing activity (in words) [1]: no endotoxin neutralizing activity
Endotoxin Neutralizing Activity, % neutralization ([1]; 5.0 × 10^−5 M peptide, 0.02 U (0.2 pg) endotoxin from E. coli 055:B5, Table 3): 0%
Endotoxin Neutralization, % neutralization ([1]; 5.0 × 10^−6 M Peptide, 0.02 U (0.2 pg) endotoxin from E. coli 055:B5, Table 4): 0%
Endotoxin Neutralization, % at the effective dose ([1]; Table 3, at the ED printed in the same cell): 23%
Endotoxin neutralization, ED, Effective M dose ([1]; Table 3, dose at which the % in brackets was found): 50 µM
Endotoxin Neutralization, % at the effective dose ([1]; Table 4, at the Ed): 0%
Endotoxin Neutralization, Ed, Effective M dose ([1]; Table 4, dose at which the % in brackets was found): 50 µM
bFGF mediated inhibition of leukocyte adhesion to cultured HUVEC (in words) (HUVEC): completely abolished

Source: patent US7030087B2, “Synthetic approach to designed chemical structures” (priority 1996, dated 2006)
